Test results as given in patent US8288377B2, “Inhibitors of the interaction between MDM2 and p53” (Janssen Pharmaceutica N.V., priority 2007, dated 2012).

Tests used:
[1] = test system: A2780 ovarian cancer cells; assay: Proliferation assay (Alamar Blue); format: cell-based; conditions: Homo sapiens, 96 h, 4-day incubation, read-out: pIC50 (negative log value of the IC50-value) (converted)
Procedure: Cellular activity of the compounds of formula (I) was determined on A2780 tumour cells using a colorimetric assay for cell toxicity or survival (see example C.2).
The human A2780 ovarian cancer cells were a kind gift from Dr. T. C. Hamilton (Fox Chase Cancer Centre, Pennsylvania, U.S.A.). The cells were cultured in RPMI 1640 medium supplemented with 2 mM L-Glutamine, 50 μg/ml gentamicin and 10% fetal calf serum.
Resazurin was purchased from Aldrich (Prod. No. 199303). Potassium ferrocyanide, potassium ferricyanide, KH2PO4 and K2HPO4 were purchased from Sigma (Prod. Nos. P9387, P8131, P5655 and P8281, respectively).
Potassium Phosphate Buffer 0.1 M (PPB) was made as follows: 2.72 gram KH2PO4 and 13.86 gram K2HPO4 were dissolved in 500 ml milli-Q H2O, the pH was adjusted to pH 7.4 and the volume was brought to 1 liter with milli-Q H2O; the buffer was filter sterilised and stored at room temperature. Resazurin stock solution (PPB-A) was prepared fresh by dissolving 45 mg resazurin in 15 ml PBS. 30 mM potassium ferricyanide (PPB-B) was prepared by dissolving 0.987 gram potassium ferricyanide in 100 ml PPB. 30 mM potassium ferrocyanide (PPB-C) was prepared by dissolving 1.266 gram potassium ferrocyanide in 100 ml PPB.
Mixture of PPB-A, PPB-B and PPB-C was prepared by mixing equal volumes of the respective solutions. Resazurin work solution (herein termed “Alamar Blue” solution) was prepared by diluting said mixture 20× (vol/vol) in PPB and filter sterilising; the Alamar Blue solution could be kept at 4° C. for a maximum of 2 weeks.
For experiments in 384 wells plates the cells were seeded at a density of 5×10^3 cells/ml in Falcon 384-well culture plates (Life Technologies, Merelbeke, Belgium), black with clear bottom, in 45 μl culture medium. Cells were allowed to adhere to plastic for 24 hr. The tested compound was pre-diluted (1/50 in culture medium) and 5 μl pre-diluted compound was added to the wells. Following 4-day incubation, 10 μl of the Alamar Blue solution was added to each well and the cells were further incubated for 5 hrs (A2780) at 37° C. The fluorescence intensity was measured for each well with a Fluorescence plate reader (Fluorskan, Labsystems, 540 nm excitation and 590 nm emission)
The antiproliferative activity was calculated as percentage of remaining viable cells in treated versus control (untreated cells) conditions. Within an experiment, the result for each experimental condition is the mean of 3 replicate wells. When appropriate, the experiments were repeated to establish full concentration-response curves. When appropriate, IC50-values (concentration of the drug, needed to reduce cell growth to 50% of the control) were computed using probit analysis for graded data (Finney, D. J., Probit Analyses, 2nd Ed. Chapter 10, Graded Responses, Cambridge University Press, Cambridge 1962). Herein the effects of test compounds are expressed as pIC50 (the negative log value of the IC50-value) (see Table 4).

p53 in A2780 cells = assay: p53 ELISA (preservation of p53 in A2780 cells); format: cell-based; conditions: Homo sapiens, treated with compound for 16 hours, read-out: p53-elisa LAD (lowest dose giving at least 140% of the value for p53 present in the control)
Procedure: The capacity of the compounds to preserve p53 in A2780 cells was measured with the p53 enzyme linked immunosorbent assay (ELISA). The p53 assay is a “sandwich” enzyme immunoassay employing two polyclonal antibodies. A polyclonal antibody, specific for the p53 protein, has been immobilized onto the surface of the plastic wells. Any p53 present in the sample to be assayed will bind to the capture antibody. The biotinylated detector polyclonal antibody also recognizes p53 protein, and will bind to any p53, which has been retained by the capture antibody. The detector antibody, in turn, is bound by horseradish peroxidase-conjugated streptavidin. The horseradish peroxidase catalyses the conversion of the chromogenic substrate o-phenylene diamine, the intensity of which is proportional to the amount of p53 protein bound to the plate. The coloured reaction product is quantified using a spectrophotometer. Quantitation is achieved by the construction of a standard curve using known concentrations of purified recombinant HIS tagged p53 protein (see example C.1).
A2780 cells (ATCC) were cultivated in RPMI 1640 supplemented with 10% fetal calf serum (FCS), 2 mM L-glutamine and gentamycin at 37° C. in a humidified incubator with 5% CO2.
A2780 cells were seeded at 20.000 cells per well in a 96 well plate, cultured for 24 hours and treated with compound for 16 hours at 37° C. in a humidified incubator. After incubation, the cells were washed once with phosphate-buffered saline and 30 μl, per well, low salt RIPA buffer (20 mM tris, pH7.0, 0.5 mM EDTA, 1% Nonidet P40, 0.5% DOC, 0.05% SDS, 1 mM PMSF, 1 μg/ml aprotinin and 0.5 μ/ml leupeptin) was added. Plates were placed on ice for 30 minutes to complete the lysis. p53 protein was detected in de lysates by using the sandwich ELISA, described below.
High binding polystyrene EIA/RIA 96 well plates (Costar 9018) were coated with the capture antibody pAb1801 (Abcam ab28-100) at a concentration of 1 μg/ml in coating buffer (0.1 M NaHCO3 pH8.2), 50 μl per well. The antibody was allowed to adhere overnight at 4° C. Coated plates were washed once with phosphate-buffered saline (PBS)/0.05% Tween 20 and 300 μl of blocking buffer (PBS, 1% bovine serum albumins (BSA)) was added, for an incubation period of 2 hours at room temperature. Dilutions of purified recombinant HIS tagged p53 protein, ranging from 3-200 ng/ml, were made in blocking buffer and used as standards.
Plates were washed twice with PBS/0.05% Tween 20 and blocking buffer or standards were added at 80 μl/well. To the standards, 20 μl of lysis buffer was added. The samples were added to the other wells at 20 μl lysate/well. After an overnight incubation at 4° C., plates were washed twice with PBS/0.05% Tween 20. Aliquots of 100 μl secondary polyclonal antibody p53(FL-393) (Tebubio, sc-6243) at a concentration of 1 μg/ml in blocking buffer were added to each well and allowed to adhere for 2 hours at room temperature. Plates were washed three times with PBS/0.05% Tween 20. Detection antibody anti-rabbit HRP (sc-2004, Tebubio) at 0.04 μg/ml in PBS/1% BSA was added and incubated for 1 hour at room temperature. Plates were washed three times with PBS/0.05% Tween 20 and 100 μl of substrate buffer was added (substrate buffer was prepared shortly before use by adding 1 tablet of 10 mg o-phenylene diamine (OPD) from Sigma and 125 μl 3% H2O2 to 25 ml OPD buffer: 35 mM citric acid, 66 mM Na2HPO4, pH5.6). After 5 to 10 minutes, colour reaction was stopped by adding 50 μl stop buffer (1 M H2SO4) per well. The absorbance at dual wavelengths of 490/655 nm was measured using a Biorad micro plate reader and the results were then analyzed.
For each experiment, controls (containing no drug) and a blank incubation (containing no cells or drugs) were run in parallel. The blank value was subtracted from all control and sample values. For each sample, the value of p53 (in absorbance units) was expressed as the percentage of the value for p53 present in the control. […]

SMILES | IC50 [1] [µM] | minimal effective concentration (p53 in A2780 cells) [µM]
OC1CCc2c(Nc3ccc4c(c3)OCCN4CCc3c[nH]c4ccccc34)ccnc21 (stereo not drawn) [Compound 1] | 0.427 | 0.1
O=C1COc2cc(Nc3ccnc4c3CCC4O)ccc2N1CCc1c[nH]c2ccccc12 (stereo not drawn) [Compound 2] | ~6.03 | 1
c1ccc2c(CCN3CCOc4cc(Nc5ccncc5)ccc43)c[nH]c2c1 [Compound 3] | > 10 | > 10
O=C1COc2cc(Nc3ccncc3)ccc2N1CCc1c[nH]c2ccccc12 [Compound 4] | > 10 | > 10
OC1CCc2c(Nc3ccc4c(c3)OC(c3ccoc3)CN4CCc3c[nH]c4ccccc34)ccnc21 (stereo not drawn) [Compound 5] | 2.57 | 0.3
c1ccc2c(CCN3CCOc4cc(Nc5ccncc5)ccc43)csc2c1 [Compound 6] | 5.5 | > 10
c1ccc2c(CCN3CC4(CCOCC4)Oc4cc(Nc5ccncc5)ccc43)c[nH]c2c1 [Compound 7] | 8.51 | > 10
CC(C)N1CCC2(CC1)CN(CCc1c[nH]c3ccccc13)c1ccc(Nc3ccncc3)cc1O2 [Compound 8] | 1.26 | > 10
CC1CN(CCc2c[nH]c3ccccc23)c2ccc(Nc3ccncc3)cc2O1 (stereo not drawn) [Compound 9] | ~5.89 | > 10
O=C1N(CCc2c[nH]c3ccccc23)c2ccc(Nc3ccnc4c3CCC4O)cc2OC1(F)F (stereo not drawn) [Compound 10] | – | 0.3
OC1CCc2c(Nc3ccc4c(c3)CCCN4CCc3c[nH]c4ccccc34)ccnc21 (stereo not drawn) [Compound 11] | 2.34 | 0.1
OC1CCc2c(Nc3ccc4c(c3)OCCN4CCc3csc4ccccc34)ccnc21 (stereo not drawn) [Compound 12] | 3.72 | 0.3
OC1CCc2c(Nc3cc(F)c4c(c3)OCCN4CCc3c[nH]c4ccccc34)ccnc21 (stereo not drawn) [Compound 13] | 4.47 | 1
Cc1cccc2c(CCN3CCOc4cc(Nc5ccnc6c5CCC6O)ccc43)c[nH]c12 (stereo not drawn) [Compound 14] | 2.88 | 3
c1ccc2c(CCN3CC4(CCNCC4)Oc4cc(Nc5ccncc5)ccc43)c[nH]c2c1 [Compound 15] | 8.32 | > 10
OCc1cc(Nc2ccc3c(c2)OC2(CCNCC2)CN3CCc2c[nH]c3ccccc23)ccn1 [Compound 16] | > 10 | > 10
Cc1cccc2c(CCN3CC(CO)Oc4cc(Nc5ccncc5)ccc43)c[nH]c12 (stereo not drawn) [Compound 17] | – | > 10
Cc1cccc2c(CCN3CC(O)COc4cc(Nc5ccnc6c5CCC6O)ccc43)c[nH]c12 (stereo not drawn) [Compound 18] | – | > 10

SMILES | IC50 [1] [µM] | minimal effective concentration (p53 in A2780 cells) [µM]
Cc1cccc2c(CCN3C[C@@H](CO)Oc4cc(Nc5ccnc6c5CC[C@@H]6O)ccc43)c[nH]c12 [Compound 19] | – | > 10
CN1CCN(CCc2c[nH]c3ccccc23)c2ccc(Nc3ccnc(CO)c3)cc21 [Compound 20] | 4.79 | 3
O=C1COc2cc(Nc3ccnc(CO)c3)ccc2N1CCc1c[nH]c2ccccc12 [Compound 21] | > 10 | > 10
OCc1cc(Nc2ccc3c(c2)OCCN3CCc2c[nH]c3ccccc23)ccn1 [Compound 22] | 2.29 | 1
c1ccc2c(CCN3CCCc4cc(Nc5ccncc5)ccc43)c[nH]c2c1 [Compound 23] | 3.02 | > 10
CC1CN(CCc2c[nH]c3ccccc23)c2ccc(Nc3ccnc4c3CCC4O)cc2O1 (stereo not drawn) [Compound 24] | 5.62 | 3
Cc1cccc2c(CCN3CC4(CCCCC4)Oc4cc(Nc5ccnc6c5CCC6O)ccc43)c[nH]c12 (stereo not drawn) [Compound 25] | ~5.62 | 0.03
OC1CCc2c(Nc3ccc4c(c3)OC3(CCSCC3)CN4CCc3c[nH]c4ccccc34)ccnc21 (stereo not drawn) [Compound 26] | ~6.03 | 0.03
CC1CN(CCc2c[nH]c3ccccc23)c2c(F)cc(Nc3ccnc4c3CCC4O)cc2O1 (stereo not drawn) [Compound 32] | – | 3
CC1CN(CCc2c[nH]c3ccccc23)c2c(F)cc(Nc3ccncc3)cc2O1 (stereo not drawn) [Compound 57] | – | > 10
Cc1cccc2c(CCN3CC4(CCN(C)CC4)Oc4cc(Nc5ccncc5)ccc43)c[nH]c12 [Compound 58] | – | > 10
O=C1N(CCc2c[nH]c3ccccc23)c2ccc(Nc3ccncc3)cc2OC1(F)F [Compound 60] | – | > 10
O=C1N(CCc2c[nH]c3ccccc23)c2ccc(Nc3ccnc(CO)c3)cc2OC1(F)F [Compound 64] | – | 10
Cc1cccc2c(CCN3CC4(CCNCC4)Oc4cc(Nc5ccncc5)ccc43)c[nH]c12 [Compound 73] | – | > 10
Cc1cccc2c(CCN3CC4(CCNCC4)Oc4cc(Nc5ccnc6c5CCC6O)ccc43)c[nH]c12 (stereo not drawn) [Compound 74] | – | > 10
CC1CN(CCc2c[nH]c3ccccc23)c2ccc(Nc3ccnc(CO)c3)cc2O1 (stereo not drawn) [Compound 79] | – | 10
CC1Oc2cc(Nc3ccnc4c3CCC4O)ccc2N(CCc2c[nH]c3ccccc23)C1=O (stereo not drawn) [Compound 80] | 3.09 | –
